Patent US10294202B2, “Pyrrolidinones as herbicides” (FMC Corporation, priority 2013, dated 2019)

Tests used:
[1] = system: barnyardgrass; assay: Test A pre-/postemergence herbicide test; format: in vivo, Echinochloa crus-galli
Procedure, shortened: (§1)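 Directed soil spray to seeded pots (preemergence) or spray onto one- to two-leaf seedlings 2–10 cm tall (postemergence); loam/sand substrate throughout. Evaluated visually after about 10 days against untreated plants, 0 = no effect, 100 = complete control.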

[2] = system: pigweed; assay: Test A pre-/postemergence herbicide test; format: in vivo, Amaranthus retroflexus
Procedure, shortened: as §1

[3] = system: corn; assay: Test A pre-/postemergence herbicide test; format: in vivo, Zea mays
Procedure, shortened: as §1

[4] = system: rice; assay: Test B flooded paddy test; format: in vivo, Oryza sativa; details: 250 g ai/ha, Flood; scale of 0 to 100 where 0 is no effect and 100 is complete control
Procedure, shortened: (§2)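 In-water application to pots flooded 3 cm deep, plants at 2-leaf stage. Held in greenhouse 13–15 days at constant flood depth. Scored 0–100 by eye against controls.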

[5] = system: ducksalad; assay: Test B flooded paddy test; format: in vivo, Heteranthera limosa; details: 250 g ai/ha, Flood; scale of 0 to 100 where 0 is no effect and 100 is complete control
Procedure, shortened: as §2

[6] = system: barnyardgrass; assay: Test B flooded paddy test; format: in vivo, Echinochloa crus-galli; details: 250 g ai/ha, Flood; scale of 0 to 100 where 0 is no effect and 100 is complete control
Procedure, shortened: as §2

[7] = system: corn; assay: Test C pre-/postemergence herbicide test; format: in vivo, Zea mays
Procedure, shortened: (§3)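 Two application timings ran in parallel with identically formulated test chemicals (non-phytotoxic solvent, surfactant included): spray on seeded loam–sand soil, and spray on emerged plants 2 to 18 cm high. Evaluation at 13 to 15 days compared each species with controls, rated from 0 up to 100.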

[8] = system: foxtail, giant; assay: Test C pre-/postemergence herbicide test; format: in vivo, Setaria faberii
Procedure, shortened: as §3

[9] = system: nutsedge, yellow; assay: Test C pre-/postemergence herbicide test; format: in vivo, Cyperus esculentus
Procedure, shortened: as §3

[10] = system: soybean; assay: Test C pre-/postemergence herbicide test; format: in vivo, Glycine max
Procedure, shortened: as §3

[11] = Postemergence, 1000 g ai/ha, 0 to 100 scale (0 no effect, 100 complete control)
[12] = Preemergence, 1000 g ai/ha, visual rating on 0 to 100 scale (0 no effect, 100 complete control), approx. 10 days
[13] = Preemergence, 31 g ai/ha, scale 0 to 100 (0 no effect, 100 complete control)
[14] = Preemergence, 62 g ai/ha, scale 0 to 100
[15] = Preemergence, 125 g ai/ha, scale 0 to 100 (0 no effect, 100 complete control)
[16] = Preemergence, 250 g ai/ha, scale 0 to 100 (0 no effect, 100 complete control)
[17] = Postemergence, 31 g ai/ha, scale 0 (no effect) to 100 (complete control)
[18] = Postemergence, 62 g ai/ha, scale 0 to 100 (0 no effect, 100 complete control)
[19] = Postemergence, 125 g ai/ha, scale 0 to 100 (0 no effect, 100 complete control)
[20] = Postemergence, 250 g ai/ha, scale 0 to 100 (0 no effect, 100 complete control)
[21] = Postemergence, 125 g ai/ha, 0 to 100 scale, 0 no effect, 100 complete control
[22] = Postemergence, 500 g ai/ha, 0 to 100 scale (0 no effect, 100 complete control)
[23] = Preemergence, 125 g ai/ha, visual rating on 0 to 100 scale (0 no effect, 100 complete control)
[24] = preemergence, 500 g ai/ha, 0 to 100 scale (0 no effect, 100 complete control)
[25] = preemergence, 500 g ai/ha, 0 to 100 scale

O=C1NCC(c2cc(F)c(F)c(F)c2)C1C(=O)Nc1ccccc1C(F)(F)F (racemic) [Compound 33]
Plant response rating, Barnyardgrass [1, 11]: 90
Plant response rating, Barnyardgrass [1, 12]: 90
Plant response rating, Pigweed [2, 11]: 0
Plant response rating, Pigweed [2, 12]: 0
Plant response rating, Corn [3, 11]: 40
Plant response rating, Corn [3, 12]: 0
Plant response rating, Rice [4]: 0
Plant response rating, Ducksalad [5]: 100
Plant response rating, Barnyardgrass [6]: 0
Corn plant response rating [7, 13]: 0
Plant response rating, Corn [7, 14]: 10
Plant response rating, Corn [7, 15]: 20
Plant response rating, Corn [7, 16]: 30
Foxtail, Giant plant response rating [8, 13]: 75
Plant response rating, Foxtail, Giant [8, 14]: 95
Plant response rating, Foxtail, Giant [8, 15]: 98
Plant response rating, Foxtail, Giant [8, 16]: 98
Plant response rating, Nutsedge, Yellow [9, 14]: 10
Plant response rating, Soybean [10, 15]: 0

O=C1NCC(c2cc(F)c(F)c(F)c2)C1C(=O)Nc1ccccc1F (racemic) [Compound 34]
Plant response rating, Barnyardgrass [1, 11]: 90
Plant response rating, Barnyardgrass [1, 12]: 90
Plant response rating, Pigweed [2, 11]: 0
Plant response rating, Pigweed [2, 12]: 0
Plant response rating, Corn [3, 11]: 50
Plant response rating, Corn [3, 12]: 30
Plant response rating, Rice [4]: 0
Plant response rating, Ducksalad [5]: 95
Plant response rating, Barnyardgrass [6]: 0
Plant response rating, Corn [7, 17]: 0
Plant response rating, Corn [7, 18]: 0
Plant response rating, Corn [7, 19]: 0
Plant response rating, Corn [7, 20]: 0
Corn plant response rating [7, 13]: 0
Plant response rating, Corn [7, 14]: 0
Plant response rating, Corn [7, 15]: 0
Plant response rating, Corn [7, 16]: 10
Plant response rating, Foxtail, Giant [8, 17]: 0
Plant response rating, Foxtail, Giant [8, 18]: 5
Plant response rating, Foxtail, Giant [8, 19]: 5
Plant response rating, Foxtail, Giant [8, 20]: 35
Foxtail, Giant plant response rating [8, 13]: 90
Plant response rating, Foxtail, Giant [8, 14]: 95
Plant response rating, Foxtail, Giant [8, 15]: 98
Plant response rating, Foxtail, Giant [8, 16]: 98
Plant response rating, Nutsedge, Yellow [9, 17]: 5
Plant response rating, Nutsedge, Yellow [9, 18]: 5
Plant response rating, Nutsedge, Yellow [9, 19]: 10
Plant response rating, Nutsedge, Yellow [9, 20]: 10
Plant response rating, Nutsedge, Yellow [9, 14]: 0
Plant response rating, Nutsedge, Yellow [9, 15]: 0
Plant response rating, Soybean [10, 17]: 0
Plant response rating, Soybean [10, 18]: 0
Plant response rating, Soybean [10, 19]: 5
Plant response rating, Soybean [10, 20]: 10
Plant response rating, Soybean [10, 14]: 0
Plant response rating, Soybean [10, 15]: 5

Cc1ccccc1NC(=O)C1C(=O)NCC1c1cc(F)c(F)c(F)c1 (racemic) [Compound 35]
Plant response rating, Barnyardgrass [1, 11]: 90
Plant response rating, Barnyardgrass [1, 12]: 90
Plant response rating, Pigweed [2, 11]: 0
Plant response rating, Pigweed [2, 12]: 0
Plant response rating, Corn [3, 11]: 20
Plant response rating, Corn [3, 12]: 20
Plant response rating, Rice [4]: 0
Plant response rating, Ducksalad [5]: 80
Plant response rating, Barnyardgrass [6]: 0
Corn plant response rating [7, 13]: 0
Plant response rating, Corn [7, 14]: 0
Plant response rating, Corn [7, 15]: 5
Plant response rating, Corn [7, 16]: 5
Foxtail, Giant plant response rating [8, 13]: 80
Plant response rating, Foxtail, Giant [8, 14]: 90
Plant response rating, Foxtail, Giant [8, 15]: 98
Plant response rating, Foxtail, Giant [8, 16]: 98
Plant response rating, Nutsedge, Yellow [9, 14]: 0
Plant response rating, Nutsedge, Yellow [9, 15]: 0
Plant response rating, Soybean [10, 14]: 0
Plant response rating, Soybean [10, 15]: 0

O=C1NCC(c2ccc(Cl)c(F)c2)C1C(=O)Nc1ccccc1F (stereo not shown) [Compound 53]
Plant response rating, Barnyardgrass [1, 21]: 30
Plant response rating, Barnyardgrass [1, 22]: 80
Barnyardgrass plant response rating [1, 23]: 80
Plant response rating, Barnyardgrass [1, 24]: 90
Plant response rating, Pigweed [2, 21]: 0
Plant response rating, Pigweed [2, 22]: 0
Pigweed plant response rating [2, 23]: 0
Plant response rating, Pigweed [2, 25]: 0
Plant response rating, Corn [3, 21]: 0
Plant response rating, Corn [3, 22]: 0
Corn plant response rating [3, 23]: 0
Plant response rating, Corn [3, 25]: 0
Plant response rating, Rice [4]: 0
Plant response rating, Ducksalad [5]: 100
Plant response rating, Barnyardgrass [6]: 0
Corn plant response rating [7, 13]: 10
Plant response rating, Corn [7, 14]: 20
Plant response rating, Corn [7, 15]: 20
Plant response rating, Corn [7, 16]: 20
Foxtail, Giant plant response rating [8, 13]: 40
Plant response rating, Foxtail, Giant [8, 14]: 65
Plant response rating, Foxtail, Giant [8, 15]: 65
Plant response rating, Foxtail, Giant [8, 16]: 85
Plant response rating, Nutsedge, Yellow [9, 14]: 20
Plant response rating, Soybean [10, 14]: 15
Plant response rating, Soybean [10, 15]: 15

O=C1NCC(c2ccc(F)c(Cl)c2)C1C(=O)Nc1cccc(F)c1F (stereo not shown) [Compound 59]
Plant response rating, Barnyardgrass [1, 21]: 70
Plant response rating, Barnyardgrass [1, 22]: 90
Barnyardgrass plant response rating [1, 23]: 80
Plant response rating, Barnyardgrass [1, 24]: 90
Plant response rating, Pigweed [2, 21]: 0
Plant response rating, Pigweed [2, 22]: 40
Pigweed plant response rating [2, 23]: 0
Plant response rating, Pigweed [2, 25]: 0
Plant response rating, Corn [3, 21]: 0
Plant response rating, Corn [3, 22]: 30
Corn plant response rating [3, 23]: 0
Plant response rating, Corn [3, 25]: 0
Plant response rating, Rice [4]: 20
Plant response rating, Ducksalad [5]: 75
Plant response rating, Barnyardgrass [6]: 40
Corn plant response rating [7, 13]: 0
Plant response rating, Corn [7, 14]: 10
Plant response rating, Corn [7, 15]: 10
Plant response rating, Corn [7, 16]: 45
Foxtail, Giant plant response rating [8, 13]: 50
Plant response rating, Foxtail, Giant [8, 14]: 85
Plant response rating, Foxtail, Giant [8, 15]: 85
Plant response rating, Foxtail, Giant [8, 16]: 90
Plant response rating, Nutsedge, Yellow [9, 14]: 0
Plant response rating, Nutsedge, Yellow [9, 15]: 0
Plant response rating, Soybean [10, 14]: 15
Plant response rating, Soybean [10, 15]: 20

O=C1NCC(c2ccc3c(c2)OC(F)(F)O3)C1C(=O)Nc1cccc(F)c1F (stereo not shown) [Compound 62]
Plant response rating, Barnyardgrass [1, 21]: 70
Plant response rating, Barnyardgrass [1, 22]: 80
Barnyardgrass plant response rating [1, 23]: 80
Plant response rating, Barnyardgrass [1, 24]: 80
Plant response rating, Pigweed [2, 21]: 30
Plant response rating, Pigweed [2, 22]: 70
Pigweed plant response rating [2, 23]: 0
Plant response rating, Pigweed [2, 25]: 30
Plant response rating, Corn [3, 21]: 40
Plant response rating, Corn [3, 22]: 70
Corn plant response rating [3, 23]: 0
Plant response rating, Corn [3, 25]: 0
Plant response rating, Rice [4]: 0
Plant response rating, Ducksalad [5]: 75
Plant response rating, Barnyardgrass [6]: 20
Corn plant response rating [7, 13]: 20
Plant response rating, Corn [7, 14]: 20
Plant response rating, Corn [7, 15]: 30
Plant response rating, Corn [7, 16]: 55
Foxtail, Giant plant response rating [8, 13]: 65
Plant response rating, Foxtail, Giant [8, 14]: 80
Plant response rating, Foxtail, Giant [8, 15]: 85
Plant response rating, Foxtail, Giant [8, 16]: 85
Plant response rating, Nutsedge, Yellow [9, 14]: 10
Plant response rating, Nutsedge, Yellow [9, 15]: 20
Plant response rating, Soybean [10, 14]: 30
Plant response rating, Soybean [10, 15]: 35

O=C1NCC(c2cccc(Br)c2)C1C(=O)Nc1cccc(F)c1F (stereo not shown) [Compound 64]
Plant response rating, Barnyardgrass [1, 21]: 60
Plant response rating, Barnyardgrass [1, 22]: 80
Barnyardgrass plant response rating [1, 23]: 80
Plant response rating, Barnyardgrass [1, 24]: 90
Plant response rating, Pigweed [2, 21]: 0
Plant response rating, Pigweed [2, 22]: 30
Pigweed plant response rating [2, 23]: 0
Plant response rating, Pigweed [2, 25]: 0
Plant response rating, Corn [3, 21]: 30
Plant response rating, Corn [3, 22]: 40
Corn plant response rating [3, 23]: 20
Plant response rating, Corn [3, 25]: 20
Plant response rating, Rice [4]: 15
Plant response rating, Ducksalad [5]: 80
Plant response rating, Barnyardgrass [6]: 0
Corn plant response rating [7, 13]: 0
Plant response rating, Corn [7, 14]: 0
Plant response rating, Corn [7, 15]: 55
Plant response rating, Corn [7, 16]: 60
Foxtail, Giant plant response rating [8, 13]: 50
Plant response rating, Foxtail, Giant [8, 14]: 80
Plant response rating, Foxtail, Giant [8, 15]: 90
Plant response rating, Foxtail, Giant [8, 16]: 98
Plant response rating, Nutsedge, Yellow [9, 14]: 20
Plant response rating, Nutsedge, Yellow [9, 15]: 20
Plant response rating, Soybean [10, 14]: 35
Plant response rating, Soybean [10, 15]: 40
